This note sets out measurements from ChEMBL document CHEMBL4831486, “Design, synthesis and biological evaluation of pleuromutilin-Schiff base hybrids as potent anti-MRSA agents in vitro and in vivo” (Eur J Med Chem, 2021).

Data set [1] concerns Escherichia coli. Kind of data set: Antibacterial activity against Escherichia coli ATCC 25922 assessed as inhibition of bacterial growth measured after 24 hrs by broth dilution method. The class given is functional. (Broth dilution looks for growth in wells or tubes with falling amounts of substance.)
The test system of data set [2] is Staphylococcus aureus. Kind of data set: Antibacterial activity against Staphylococcus aureus ATCC 29213 assessed as inhibition of bacterial growth measured after 24 hrs by broth dilution method. The data set is classed as functional.
For data set [3], the system named is Staphylococcus aureus. The data set can be described thus: Bactericidal activity against Staphylococcus aureus 144 assessed as inhibition of bacterial growth measured after 96 hrs by broth dilution method. The class given is functional.
Another data set relates to RAW264.7. The data set can be described thus: Cytotoxicity against mouse RAW264.7 cells assessed as reduced cell viability at 4 ug/ml measured after 16 hrs by MTT assay. The settings on record: raw264.7, 16 h, dose 4 µg/ml. The data set is classed as cell-based.
Data set [4] concerns Staphylococcus aureus. Kind of data set: Antibacterial activity against Staphylococcus aureus 144 assessed as inhibition of bacterial growth measured after 24 hrs by broth dilution method. The data set is classed as functional.
Data set [5] relates to Staphylococcus aureus. The data set can be described thus: Bactericidal activity against Methycillin-resistant Staphylococcus aureus ATCC 43300 assessed as inhibition of bacterial growth measured after 96 hrs by broth dilution method. The data set is classed as functional.
The test system of another data set is HepG2. Kind of data set: Cytotoxicity against human HepG2 cells assessed as reduced cell viability at 4 ug/ml measured after 16 hrs by MTT assay. The class given is cell-based. Conditions: hepg2, 16 h, dose 4 µg/ml. (Tetrazolium assays rely on reduction of a dye to a coloured formazan, in cell work by metabolically active cells.)
For data set [6], the system named is Staphylococcus aureus. Kind of data set: Bactericidal activity against Staphylococcus aureus AD3 assessed as inhibition of bacterial growth measured after 96 hrs by broth dilution method. The data set is classed as functional.
Data set [7] relates to Staphylococcus aureus. Kind of data set: Antibacterial activity against Staphylococcus aureus AD3 assessed as inhibition of bacterial growth measured after 24 hrs by broth dilution method. The class given is functional.
The subject of data set [8] is Escherichia coli. Kind of data set: Bactericidal activity against Escherichia coli ATCC 25922 assessed as inhibition of bacterial growth measured after 96 hrs by broth dilution method. The class given is functional.
The subject of data set [9] is Staphylococcus aureus. Kind of data set: Bactericidal activity against Staphylococcus aureus ATCC 29213 assessed as inhibition of bacterial growth measured after 96 hrs by broth dilution method. The class given is functional.
The test system of data set [10] is Staphylococcus aureus. The data set can be described thus: Antibacterial activity against Methycillin-resistant Staphylococcus aureus ATCC 43300 assessed as inhibition of bacterial growth measured after 24 hrs by broth dilution method. The class given is functional.

≈ marks a conversion by molar mass, not a printed value.

For the molecule `C=C[C@]1(C)C[C@@H](OC(=O)CSc2nnc(C)n2/N=C/c2cccc(C)c2)[C@]2(C)[C@H](C)CC[C@]3(CCC(=O)[C@H]32)[C@@H](C)[C@@H]1O`, the MIC in the data set with Escherichia coli [1] is over 64 µg/mL; in the data set with Staphylococcus aureus [2], 1 µg/mL (≈ 1.69 µM); in the data set with Staphylococcus aureus [4], 2 µg/mL (≈ 3.37 µM); in the data set with Staphylococcus aureus [7], 1 µg/mL (≈ 1.69 µM); with Staphylococcus aureus [10], 1 µg/mL (≈ 1.69 µM). Besides, the minimum bactericidal concentration (MBC) in the data set on Staphylococcus aureus [3] was 4 µg/mL (≈ 6.75 µM); in the data set on Staphylococcus aureus [5], 2 µg/mL (≈ 3.37 µM); with Staphylococcus aureus [6] it was 4 µg/mL (≈ 6.75 µM); with Escherichia coli [8], over 64 µg/mL; in the data set on Staphylococcus aureus [9], 2 µg/mL (≈ 3.37 µM). The Activity entry with RAW264.7 and in the data set on HepG2 was “Non-Toxic” in each case.

Regarding `C=C[C@]1(C)C[C@@H](OC(=O)CSc2nnc(C)n2/N=C/c2ccccc2C)[C@]2(C)[C@H](C)CC[C@]3(CCC(=O)[C@H]32)[C@@H](C)[C@@H]1O`, the MIC with Escherichia coli [1] was over 64 µg/mL; in the data set on Staphylococcus aureus [2], 1 µg/mL (≈ 1.69 µM); with Staphylococcus aureus [4], 2 µg/mL (≈ 3.37 µM); in the data set on Staphylococcus aureus [7] it was 1 µg/mL (≈ 1.69 µM); in the data set on Staphylococcus aureus [10], 1 µg/mL (≈ 1.69 µM). Besides, the MBC with Staphylococcus aureus [3] is 4 µg/mL (≈ 6.75 µM); with Staphylococcus aureus [5], 2 µg/mL (≈ 3.37 µM); in the data set with Staphylococcus aureus [6], 4 µg/mL (≈ 6.75 µM); with Escherichia coli [8], over 64 µg/mL; with Staphylococcus aureus [9], 2 µg/mL (≈ 3.37 µM). Besides, the Activity entry in the data set on RAW264.7 and with HepG2 was “Non-Toxic” each time.

`C=C[C@]1(C)C[C@@H](OC(=O)CSc2nnc(C)n2/N=C/c2ccccc2)[C@]2(C)[C@H](C)CC[C@]3(CCC(=O)[C@H]32)[C@@H](C)[C@@H]1O`: the MIC is over 64 µg/mL in the data set on Escherichia coli [1]; 1 µg/mL (≈ 1.73 µM) in the data set on Staphylococcus aureus [2]; 2 µg/mL (≈ 3.46 µM) with Staphylococcus aureus [4]; 1 µg/mL (≈ 1.73 µM) in the data set with Staphylococcus aureus [7]; 0.5 µg/mL (≈ 0.864 µM) with Staphylococcus aureus [10]. The MBC in the data set with Staphylococcus aureus [3] is 4 µg/mL (≈ 6.91 µM); in the data set with Staphylococcus aureus [5], 1 µg/mL (≈ 1.73 µM); with Staphylococcus aureus [6], 4 µg/mL (≈ 6.91 µM); in the data set with Escherichia coli [8], over 64 µg/mL; in the data set with Staphylococcus aureus [9] it was 2 µg/mL (≈ 3.46 µM). Also, the Activity result in the data set with RAW264.7 and with HepG2 was “Non-Toxic” each time.

In the case of `C=C[C@]1(C)C[C@@H](OC(=O)CSc2nnc(C)n2/N=C/c2cccc(F)c2)[C@]2(C)[C@H](C)CC[C@]3(CCC(=O)[C@H]32)[C@@H](C)[C@@H]1O`, the minimum inhibitory concentration (MIC) in the data set on Escherichia coli [1] is over 64 µg/mL; in the data set on Staphylococcus aureus [2], 1 µg/mL (≈ 1.68 µM); in the data set on Staphylococcus aureus [4], 2 µg/mL (≈ 3.35 µM); in the data set with Staphylococcus aureus [7] it was 1 µg/mL (≈ 1.68 µM); in the data set with Staphylococcus aureus [10], 0.5 µg/mL (≈ 0.838 µM). Moreover, the MBC with Staphylococcus aureus [3] is 4 µg/mL (≈ 6.7 µM); in the data set with Staphylococcus aureus [5] it was 1 µg/mL (≈ 1.68 µM); with Staphylococcus aureus [6], 4 µg/mL (≈ 6.7 µM); with Escherichia coli [8], over 64 µg/mL; in the data set on Staphylococcus aureus [9], 4 µg/mL (≈ 6.7 µM). Moreover, the Activity result with RAW264.7 and in the data set with HepG2 was “Non-Toxic” each time.

For `C=C[C@]1(C)C[C@@H](OC(=O)CSc2nnc(C)n2/N=C/c2ccccc2F)[C@]2(C)[C@H](C)CC[C@]3(CCC(=O)[C@H]32)[C@@H](C)[C@@H]1O`, the MIC in the data set with Escherichia coli [1] is over 64 µg/mL; in the data set with Staphylococcus aureus [2], 1 µg/mL (≈ 1.68 µM); with Staphylococcus aureus [4], 2 µg/mL (≈ 3.35 µM); in the data set with Staphylococcus aureus [7], 1 µg/mL (≈ 1.68 µM); in the data set with Staphylococcus aureus [10], 0.5 µg/mL (≈ 0.838 µM). Moreover, the minimal bactericidal concentration (MBC) was 4 µg/mL (≈ 6.7 µM) in the data set on Staphylococcus aureus [3]; 1 µg/mL (≈ 1.68 µM) in the data set on Staphylococcus aureus [5]; 4 µg/mL (≈ 6.7 µM) in the data set with Staphylococcus aureus [6]; over 64 µg/mL with Escherichia coli [8]; 2 µg/mL (≈ 3.35 µM) in the data set with Staphylococcus aureus [9]. The Activity entry with RAW264.7 and in the data set on HepG2 was “Non-Toxic” throughout.

As to `C=C[C@]1(C)C[C@@H](OC(=O)CO)[C@]2(C)[C@H](C)CC[C@]3(CCC(=O)[C@H]32)[C@@H](C)[C@@H]1O` [PLEUROMULIN], the MIC was over 64 µg/mL in the data set on Escherichia coli [1]; 2 µg/mL (≈ 5.28 µM) in the data set with Staphylococcus aureus [2]; 2 µg/mL (≈ 5.28 µM) in the data set on Staphylococcus aureus [4]; 2 µg/mL (≈ 5.28 µM) with Staphylococcus aureus [7]; 2 µg/mL (≈ 5.28 µM) in the data set on Staphylococcus aureus [10]. In addition, the MBC in the data set with Staphylococcus aureus [3] was 4 µg/mL (≈ 10.6 µM); in the data set with Staphylococcus aureus [5], 4 µg/mL (≈ 10.6 µM); in the data set on Staphylococcus aureus [6], 4 µg/mL (≈ 10.6 µM); with Escherichia coli [8], over 64 µg/mL; in the data set with Staphylococcus aureus [9], 4 µg/mL (≈ 10.6 µM).

What is called MIC is the least concentration at which growth counts as inhibited. For orientation: MBC means the smallest concentration meeting the test's criterion for killing.
